Measured values published in PMC11500415, “Chemical inhibition of stomatal differentiation by perturbation of the master-regulatory bHLH heterodimer via an ACT-Like domain” (Nature Communications, 2024).
Several values for one entry are separate records, joined by “and”; a condition that tells them apart may be missing. Identical values can stand only once.

Tests used:
[1] = target: T1, SCRM2-SPCH heterodimer (Arabidopsis thaliana, UniProt Q700C7); experiment: Ratiometric BiFC in N. benthamiana leaves; type: cell-based; conditions: SPCH-SCRM2 pair, STOMI-treated, rescaled, average of 20; DMSO 0.870846
T1 construct: heterodimerization of SCRM with full-length SPCH, MUTE, or FAMA in the context of the plant cells; we performed rBiFC assays using full-length SCRM2; nYFP (N terminus of EYFP, 174 amino acids); cYFP (C terminus of EYFP, 64 amino acids); expressed in transfected cells; host or cells: Nicotiana benthamiana leaves (Agrobacterium infiltration)
From the text: (§1) For ratiometric BiFC assays, the cDNAs of SPCH, MUTE, and FAMA were cloned into the 35S CaMV promoter-driven destination vector pSPYNE, which contains the N terminus of the EYFP protein (nYFP-174 amino acids), while the cDNA of SCRM and SCRM2 was inserted into pSPYCE, which contains the C terminus of the EYFP protein (cYFP-64 amino acids) (see Supplementary Table 5 for detailed information of the constructs). The constructs were then transformed into Agrobacterium tumefaciens strain GV3101. The Agrobacterium was resuspended in infiltration buffer (10 mM MgCl2, 10 mM 2-(N-morpholino)ethanesulfonic acid [pH 5.6], and 150 µM acetosyringone). Bacterial culture densities were adjusted to a final optical density (OD600) of 1.0, and the cell suspensions were incubated at room temperature for 4 hours prior to infiltration. Equal volumes of cultures carrying the corresponding complementary pair of BiFC constructs (YFPn and YFPc), along with CaMV35S::Histone H2B-mScarlet-I3 and the silencing suppressor plasmid p19 (a gift from Dr. Sir David Baulcombe) were mixed and then co-infiltrated into 4-week-old N. benthamiana leaves. The infiltrated N. benthamiana leaves were incubated at 25 °C for 2 days. Subsequently, leaf discs were cut out and cultured in mock or in liquid 1/2 MS media in mock (DMSO) or 100 µM Stomidazolone for 1 day. Confocal imaging of N. benthamiana leaves was performed using a Leica SP8 confocal microscope using a 20X objective lens (Leica Microsystems), simultaneously capturing YFP (excitation at 518 nm and emission at 530 nm) and mScarlet-I3 (excitation at 569 nm and emission at 600 nm) differential interference contrast channels.

[2] = target: T2, SCRM-MUTE heterodimer (Arabidopsis thaliana, UniProt Q9M8K6); experiment: Ratiometric BiFC in N. benthamiana leaves; type: cell-based; conditions: BiFC MUTE+SCRM, STOMI-treated, individual measurements
T2 construct: expressed in transfected cells; host or cells: yeast strain AH109
T2 sequence (Q9M8K6 1-202): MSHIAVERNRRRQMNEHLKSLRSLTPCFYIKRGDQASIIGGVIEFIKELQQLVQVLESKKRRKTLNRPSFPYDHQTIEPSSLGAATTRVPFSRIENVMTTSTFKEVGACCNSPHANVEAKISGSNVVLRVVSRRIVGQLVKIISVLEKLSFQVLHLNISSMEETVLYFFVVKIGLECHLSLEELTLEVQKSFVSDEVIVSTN
From the text: as §1

[3] = target: T3, SCRM2-MUTE heterodimer (Arabidopsis thaliana, UniProt Q9M8K6); experiment: Ratiometric BiFC in N. benthamiana leaves; type: cell-based; conditions: MUTE-SCRM2 pair, STOMI-treated, rescaled, average of 20; DMSO 0.692877
T3 construct: heterodimerization of SCRM with full-length SPCH, MUTE, or FAMA in the context of the plant cells; nYFP (N terminus of EYFP, 174 amino acids); expressed in transfected cells; host or cells: Nicotiana benthamiana leaves (Agrobacterium infiltration)
From the text: as §1

[4] = target: T4, SCRM2-FAMA heterodimer (Arabidopsis thaliana, UniProt Q56YJ8); experiment: Ratiometric BiFC in N. benthamiana leaves; type: cell-based; conditions: FAMA-SCRM2 pair, STOMI-treated, rescaled, average of 20; DMSO 0.813227
T4 construct: heterodimerization of SCRM with full-length SPCH, MUTE, or FAMA in the context of the plant cells; we performed rBiFC assays using full-length SCRM2; nYFP (N terminus of EYFP, 174 amino acids); cYFP (C terminus of EYFP, 64 amino acids); expressed in transfected cells; host or cells: Nicotiana benthamiana leaves (Agrobacterium infiltration)
From the text: as §1

[5] = target: T5, SCRM-FAMA heterodimer (Arabidopsis thaliana, UniProt Q56YJ8); experiment: Ratiometric BiFC in N. benthamiana leaves; type: cell-based; conditions: BiFC FAMA+SCRM, STOMI-treated, individual measurements
T5 construct: heterodimerization of SCRM with full-length SPCH, MUTE, or FAMA in the context of the plant cells; combinations of split YFP constructs fused to the full-length stomatal bHLH proteins; nYFP (N terminus of EYFP, 174 amino acids); cYFP (C terminus of EYFP, 64 amino acids); expressed in transfected cells; host or cells: Nicotiana benthamiana leaves (Agrobacterium infiltration)
T5 sequence (Q56YJ8 1-414): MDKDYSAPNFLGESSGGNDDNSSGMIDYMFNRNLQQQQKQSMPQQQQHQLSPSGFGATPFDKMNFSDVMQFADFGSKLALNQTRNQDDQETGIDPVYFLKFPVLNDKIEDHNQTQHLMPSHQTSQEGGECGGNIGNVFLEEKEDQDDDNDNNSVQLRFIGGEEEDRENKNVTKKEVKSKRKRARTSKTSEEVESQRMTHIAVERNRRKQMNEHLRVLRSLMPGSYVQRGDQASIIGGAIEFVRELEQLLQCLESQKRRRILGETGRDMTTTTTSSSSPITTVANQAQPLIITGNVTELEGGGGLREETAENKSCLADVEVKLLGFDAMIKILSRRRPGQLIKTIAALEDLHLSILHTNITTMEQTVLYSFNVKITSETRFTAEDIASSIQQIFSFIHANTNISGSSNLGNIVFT
From the text: as §1

[6] = target: T6, SCRM-SPCH heterodimer (Arabidopsis thaliana, UniProt Q700C7); type: cell-based; conditions: STOMI-treated
T6 construct: heterodimerization of SCRM with full-length SPCH, MUTE, or FAMA in the context of the plant cells; combinations of split YFP constructs fused to the full-length stomatal bHLH proteins; nYFP (N terminus of EYFP, 174 amino acids); cYFP (C terminus of EYFP, 64 amino acids); expressed in transfected cells; host or cells: Nicotiana benthamiana leaves (Agrobacterium infiltration)
T6 sequence (Q700C7 1-364): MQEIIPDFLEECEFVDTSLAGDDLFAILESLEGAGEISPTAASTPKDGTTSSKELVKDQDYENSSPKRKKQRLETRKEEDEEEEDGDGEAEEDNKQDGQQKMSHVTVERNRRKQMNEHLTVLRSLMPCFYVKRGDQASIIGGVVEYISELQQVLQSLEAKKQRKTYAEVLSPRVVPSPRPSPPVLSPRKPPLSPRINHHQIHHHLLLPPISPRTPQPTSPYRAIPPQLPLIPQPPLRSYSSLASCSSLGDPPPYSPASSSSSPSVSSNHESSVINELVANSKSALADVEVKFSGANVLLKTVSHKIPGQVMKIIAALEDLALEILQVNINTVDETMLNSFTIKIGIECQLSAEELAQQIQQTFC
From the text: as §1

[7] = target: T7, empty+SCRM (control) (Arabidopsis thaliana, UniProt Q9LSE2); experiment: Ratiometric BiFC, control empty+SCRM; type: cell-based; conditions: STOMI-treated, individual measurements
T7 construct: split YFP constructs fused to the full-length stomatal bHLH proteins; expressed in transfected cells; host or cells: Nicotiana benthamiana leaves (Agrobacterium infiltration)
T7 sequence (Q9LSE2 1-494): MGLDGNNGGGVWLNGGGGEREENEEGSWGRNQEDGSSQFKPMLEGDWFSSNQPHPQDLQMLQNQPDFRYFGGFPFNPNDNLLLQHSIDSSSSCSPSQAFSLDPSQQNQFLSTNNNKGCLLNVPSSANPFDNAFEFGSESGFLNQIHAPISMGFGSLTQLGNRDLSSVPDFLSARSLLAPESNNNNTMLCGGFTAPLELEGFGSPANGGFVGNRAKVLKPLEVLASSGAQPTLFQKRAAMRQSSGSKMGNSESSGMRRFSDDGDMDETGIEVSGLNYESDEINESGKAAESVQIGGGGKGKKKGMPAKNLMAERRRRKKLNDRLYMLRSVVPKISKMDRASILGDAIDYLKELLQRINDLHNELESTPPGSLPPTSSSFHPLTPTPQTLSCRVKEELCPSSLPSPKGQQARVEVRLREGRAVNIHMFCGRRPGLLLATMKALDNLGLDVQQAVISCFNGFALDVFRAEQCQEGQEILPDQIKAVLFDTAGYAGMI

[8] = system: stomatal movement; design: method as in PMID 35042960; conditions: previous chemical screens and SAR studies; cited from earlier work
[9] = BiFC SPCH+SCRM, individual measurements

Structure (SMILES) | BiFC YFP/mScarlet signal intensity ratio, average [1] | YFP [2] | YFP/mScarlet [2] | mScarlet [2] | BiFC YFP/mScarlet signal intensity ratio, average [3] | BiFC YFP/mScarlet signal intensity ratio, average [4] | YFP [5] | YFP/mScarlet [5] | mScarlet [5] | YFP [6, 9] | mScarlet [6, 9] | BiFC YFP/mScarlet signal intensity ratio, average ([6]; SPCH-SCRM pair, rescaled, average of 20, DMSO 0.999748) | YFP [7] | YFP/mScarlet [7] | mScarlet [7] | effect on stomatal movement (in words) [8]
O=C1C(c2ccccc2)=NC(NS(=O)(=O)c2ccccc2)(c2ccccc2)N1S(=O)(=O)c1ccccc1 (racemic) [STOMI] | 0.1468 | 1.16E+01 and 3.104 and 3.249 and 11.738 and 9.681 and 6.858 | 0.2554 and 0.01703 and 0.0181 and 0.2123 and 0.2385 and 0.1574 | 45.576 and 182.295 and 179.515 and 55.282 and 40.598 and 43.561 | 0.1063 | 0.1443 | 186.917 and 54.749 and 197.322 and 78.346 and 117.223 and 50.688 | 0.9773 and 1.064 and 0.9455 and 1.191 and 0.9038 and 0.8169 | 191.252 and 51.452 and 208.697 and 65.781 and 129.694 and 62.052 | 42.813 and 234.339 and 61.532 and 61.417 and 224.742 and 142.963 | 36.031 and 235.498 and 75.919 and 70.723 and 231.024 and 153.918 | 0.9445 | 0.095 and 0.409 and 0 and 0.026 and 5.60E-04 and 0.042 | 0.0009064 and 0.01087 and 0 and 0.0008066 and 3.5039e-6 and 0.000976 | 104.805 and 37.637 and 55.755 and 32.234 and 159.765 and 43.034 | –
O=S(=O)(c1ccccc1)N(c1oc(-c2ccccc2)nc1-c1ccccc1)S(=O)(=O)c1ccccc1 [SIM1] | – | – | – | – | – | – | – | – | – | – | – | – | – | – | – | inhibit stomatal movement
